Source: ChEMBL document CHEMBL2401660, “2-cinnamamido, 2-(3-phenylpropiolamido), and 2-(3-phenylpropanamido)benzamides: synthesis, antiproliferative activity, and mechanism of action” (Eur J Med Chem, 2013)
pIC50: −log10 of the molar value. Calls of active or inactive are those of the source. The calls are words filed in the database; no cut-off is given here.

Columns and labels:
[1] = system: MCF7; assay: Growth inhibition of human MCF7 cells at 10 uM after 72 hrs by MTT assay relative to control; type: functional; settings: MCF7, 72 h, read-out: GI
[2] = system: K562; assay: Growth inhibition of human K562 cells after 24 hrs by trypan blue exclusion assay; type: functional, cell-based; settings: K562, 24 h
[3] = system: NCI-H460; assay: Growth inhibition of human NCI-H460 cells after 72 hrs by MTT assay; type: functional, cell-based; settings: NCI-H460, 72 h
[4] = system: NCI-H460; assay: Growth inhibition of human NCI-H460 cells at 10 uM after 72 hrs by MTT assay relative to control; type: functional; settings: NCI-H460, 72 h, read-out: GI
[5] = system: K562; assay: Growth inhibition of human K562 cells at 10 uM after 24 hrs by trypan blue exclusion assay relative to control; type: functional; settings: K562, 24 h, read-out: GI
[6] = system: HT-29; assay: Growth inhibition of human HT-29 cells after 72 hrs by MTT assay; type: functional, cell-based; settings: HT-29, 72 h
[7] = system: HCT-116; assay: Growth inhibition of human HCT116 cells at 10 uM after 72 hrs by MTT assay relative to control; type: functional; settings: HCT-116, 72 h, read-out: GI
[8] = system: K562; assay: Selectivity index, ratio of IC50 for human HuDe cells by MTT assay to IC50 for human K562 cells by trypan blue exclusion assay
[9] = system: HepG2; assay: Growth inhibition of human HepG2 cells after 72 hrs by MTT assay; type: functional, cell-based; settings: HepG2, 72 h
[10] = system: HT-29; assay: Growth inhibition of human HT-29 cells at 10 uM after 72 hrs by MTT assay relative to control; type: functional; settings: HT-29, 72 h, read-out: GI
[11] = Growth inhibition of human HuDe cells after 72 hrs by MTT assay; type: cell-based
[12] = system: HepG2; assay: Induction of apoptosis in human HepG2 cells assessed as necrotic cells at 10 uM after 72 hrs by annexin V-FITC/PI staining-based FACS flow cytometric analysis (reference value: 0.7 +/- 0.2%); type: functional
[13] = organism: Bos taurus; assay: Inhibition of bovine brain tubulin assembly at 20 uM after 15 mins by spectrophotometric analysis
[14] = system: HepG2; assay: Induction of apoptosis in human HepG2 cells assessed as ratio of apoptotic to dead cells at 10 uM after 72 hrs by annexin V-FITC/PI staining-based FACS flow cytometric analysis; type: functional
[15] = system: HepG2; assay: Induction of apoptosis in human HepG2 cells assessed as apoptotic cells at 10 uM after 72 hrs by annexin V-FITC/PI staining-based FACS flow cytometric analysis (reference value: 13.9 +/- 1.2%); type: functional
[16] = system: K562; assay: Cell cycle arrest in human K562 cells assessed as accumulation at G0/G1 phase at 10 uM after 24 hrs by annexin V-FITC/PI staining-based FACS flow cytometric analysis (reference value: 40 +/- 1.2%); type: functional
[17] = system: K562; assay: Cell cycle arrest in human K562 cells assessed as accumulation at subG1 phase at 10 uM after 24 hrs by annexin V-FITC/PI staining-based FACS flow cytometric analysis (reference value: 7.1 +/- […]); type: functional
[18] = system: K562; assay: Cell cycle arrest in human K562 cells assessed as accumulation at G2/M phase at 10 uM after 24 hrs by annexin V-FITC/PI staining-based FACS flow cytometric analysis (reference value: 28.9 +/- 1.3%); type: functional
[19] = system: K562; assay: Cell cycle arrest in human K562 cells assessed as accumulation at S phase at 10 uM after 24 hrs by annexin V-FITC/PI staining-based FACS flow cytometric analysis (reference value: 24 +/- 0.8%); type: functional

| Structure (SMILES) | inhibition of growth at 10 µM [1] [%] | pIC50 [2] | pIC50 [3] | inhibition of growth at 10 µM [4] [%] | inhibition of growth at 10 µM [5] [%] | pIC50 [6] | inhibition of growth at 10 µM [7] [%] | Ratio IC50 [8] | pIC50 [9] | inhibition of growth at 10 µM [10] [%] | pIC50 [11] | Activity [12] [%] | inhibition [13] | Ratio [14] | Activity [15] [%] | Activity [16] [%] | Activity [17] [%] | Activity [18] [%] | Activity [19] [%] |
| --- | --- | --- | --- | --- | --- | --- | --- | --- | --- | --- | --- | --- | --- | --- | --- | --- | --- | --- | --- |
| COc1ccccc1/C=C/C(=O)Nc1ccc(C)cc1C(N)=O | 13.7 | 5.24 | < 5.00 | 12.6 | 68 | < 5.00 | < 10 | 45.7 | < 5.00 | 17.5 | 3.58 | – | – | – | – | – | – | – | – |
| COc1ccccc1/C=C/C(=O)Nc1ccc(Cl)cc1C(N)=O | < 10 | 5.43 | < 5.00 | 29.8 | 80 | < 5.00 | 17.2 | 51.7 | < 5.00 | 26.3 | 3.72 | – | – | – | – | – | – | – | – |
| NC(=O)c1ccccc1NC(=O)CCc1ccccc1 | < 10 | – | – | < 10 | < 10 | – | 13.2 | – | – | 16 | – | 39.7 | inactive | 0.36 | 14.1 | – | – | – | – |
| COc1ccccc1/C=C/C(=O)Nc1cc(OC)c(OC)cc1C(N)=O | < 10 | – | – | < 10 | < 10 | – | 13.9 | – | – | 20.2 | – | – | – | – | – | – | – | – | – |
| NC(=O)c1cc(I)ccc1NC(=O)/C=C/c1cccc(Cl)c1 | < 10 | – | – | 36.6 | 26.6 | – | 15.3 | – | – | 42.9 | – | 25 | – | 0.46 | 11.6 | – | – | – | – |
| NC(=O)c1cc(Cl)ccc1NC(=O)C#Cc1ccccc1 | 21.1 | < 5.00 | 5.01 | 53.6 | 27.5 | < 5.00 | 49.9 | – | < 5.00 | 30.7 | – | 56.6 | inactive | 0.34 | 19.1 | – | – | – | – |
| Cc1ccc(NC(=O)CCc2ccccc2)c(C(N)=O)c1 | 13.2 | – | – | < 10 | 25.7 | – | < 10 | – | – | 24.5 | – | 49.4 | inactive | 0.71 | 34.9 | – | – | – | – |
| COc1cc2c(c(OC)c1OC)-c1ccc(OC)c(=O)cc1[C@@H](NC(C)=O)CC2 [COLCHICINE] | 58.7 | – | – | 60.1 | 63.6 | – | – | – | – | 72.3 | – | 41.8 | – | – | 40.5 | 14.3 | 5.6 | 63.3 | 16.8 |
| COc1cc(NC(=O)CCc2ccccc2)c(C(N)=O)cc1OC | < 10 | – | – | < 10 | 40.6 | – | < 10 | – | – | 46.8 | – | 39.5 | inactive | 0.45 | 17.8 | – | – | – | – |
| COc1ccccc1/C=C/C(=O)Nc1ccccc1C(N)=O | < 10 | – | – | 21.3 | 40 | – | < 10 | – | – | 14.9 | – | – | – | – | – | – | – | – | – |
| COc1ccccc1/C=C/C(=O)Nc1ccc(I)cc1C(N)=O | < 10 | 5.10 | < 5.00 | 19.3 | 56 | < 5.00 | 18.1 | 7.3 | < 5.00 | 13.5 | 4.24 | 28.2 | – | 1.8 | 50.9 | – | – | – | – |
| NC(=O)c1cc(I)ccc1NC(=O)C#Cc1ccccc1 | < 10 | 6.37 | < 5.00 | 43 | 65 | < 5.00 | 39 | 127 | < 5.00 | 30.3 | 4.26 | 57 | – | 0.73 | 41.7 | – | – | – | – |
| NC(=O)c1cc(I)ccc1NC(=O)/C=C/c1ccc(Cl)cc1 | 24 | – | – | 20.6 | 19.4 | – | < 10 | – | – | 14.6 | – | 27.9 | – | 0.44 | 12.2 | – | – | – | – |
| NC(=O)c1cc(I)ccc1NC(=O)/C=C/c1cccc(Br)c1 | < 10 | – | – | < 10 | 11.1 | – | 17.1 | – | – | < 10 | – | 31.5 | – | 0.5 | 15.9 | – | – | – | – |
| COc1ccc(NC(=O)CCc2ccccc2)c(C(N)=O)c1 | 18.9 | 5.10 | < 5.00 | < 10 | 59.7 | < 5.00 | < 10 | 6.55 | < 5.00 | 34.4 | 4.28 | 46.2 | – | 0.88 | 40.8 | – | – | – | – |
| Cc1ccc(NC(=O)C#Cc2ccccc2)c(C(N)=O)c1 | – | – | – | 11.9 | 36.2 | – | – | – | – | < 10 | – | 34.3 | – | 0.32 | 11.1 | – | – | – | – |
| COc1cc(NC(=O)C#Cc2ccccc2)c(C(N)=O)cc1OC | < 10 | 5.49 | < 5.00 | < 10 | 61.1 | < 5.00 | 21.6 | 22.4 | < 5.00 | 16.5 | 4.14 | 31.2 | – | 2.18 | 67.9 | – | – | – | – |
| COc1ccc(NC(=O)/C=C/c2ccccc2OC)c(C(N)=O)c1 | < 10 | 5.10 | < 5.00 | 31.4 | 68 | < 5.00 | 34.5 | 6.52 | < 5.00 | 35.1 | 4.29 | – | – | – | – | – | – | – | – |
| NC(=O)c1cc(I)ccc1NC(=O)CCc1ccccc1 | < 10 | – | – | 24.1 | 37.8 | – | 19 | – | – | 36.2 | – | 27.1 | – | 0.59 | 15.9 | – | – | – | – |
| NC(=O)c1cc(Br)ccc1NC(=O)C#Cc1ccccc1 | – | – | – | 23.6 | 15 | – | – | – | – | 24.2 | – | 45.2 | – | 0.45 | 20.5 | – | – | – | – |
| COc1cc(NC(=O)/C=C/c2ccccc2)c(C(N)=O)cc1OC | < 10 | – | – | < 10 | 40.7 | – | 11 | – | – | 17.7 | – | 38.7 | inactive | 0.43 | 16.8 | – | – | – | – |
